US4278687A, “Inhibition of biosynthesis of triglycerides by certain N-β-phenethyl-N-thienylalkylamines” (Shell Oil Company, priority 1980, dated 1981)

System: enzyme from pig adipose tissue (synthesis of triglycerides)
Test: Inhibition of triglyceride synthesis by enzyme preparation from pig adipose tissue (14C-glycerol-3-phosphate incorporation)
Format: biochemical
Settings: test compound 1000 micrograms per milliliter, 5% DMSO, 8 minutes at 37° C; compared to controls without test compound; average of two animals
Experimental: An enzyme was prepared by homogenizing one gram of slices from pig adipose tissue, each slice being approximately 0.3 mm thick, in one-milliliter portions of a liquid medium (Liquid A). The homogenate then was centrifuged (10.000 g×15 minutes), and the supernatant phase (the enzyme) was poured through cheesecloth to remove fat that had risen to the top of the centrifuge tubes.
Liquid A had the following composition (in water):
0.15 M potassium chloride, 1 mM ethylenediaminetetracetic acid, […] Hepes (N-2-hydroxyethylpiperazine-N'-2-ethanesulfonic acid), 1 mM DTT (dithiothreitol), pH=7.0.
A solution of the test compound (Liquid B) was prepared: 10 milligrams of test compound plus 0.5 milliliter dimethylsulfoxide (DMSO) plus 1.83 milliliters of glass-distilled water.
A premix (Liquid C) was freshly prepared before each test, from the following components:
0.163 milliliter of Liquid B (containing the test compound, or for comparison omitting the test compound) was mixed with 0.1 milliliter of Liquid C, 0.05 milliliter of a solution of L-[U-^14 C] glycerol-3-phosphate (containing 5 microcuries of ^14 C per milliliter), 0.01 milliliter of 0.8 M potassium phosphate (pH=7.4), 0.07 milliliter of 0.2 M glycerol-3-phosphate (pH=7.4) and 0.047 milliliter of water. 0.25 milliliter of enzyme then was added. The final concentrations of DMSO and test compound were 5% and 1000 micrograms per milliliter, respectively. The mixture was incubated for 8 minutes at 37° C. A blank control without enzyme was incubated under the same conditions. Then, 3 milliliters of a 1:2 (v/v) mixture of chloroform and methanol was added and thoroughly mixed to terminate the reaction. After 10 minutes, 2 milliliters of chloroform and 1 milliliter of 0.1 N hydrochloric acid were added to the stirred mixture. The mixture was then centrifuged (275 g) for 5 minutes at room temperature. The top layer of the sample was siphoned off. Two milliliters of 0.1 N hydrochloric acid in 50% methanol/water was added, the mixture was centrifuged (275 g) and the top layer was carefully siphoned off. The resulting liquid (the chloroform phase) was transferred to a liquid scintillation vial and air dried. Ten milliliters of a 2:1 (v/v) mixture of toluene and Triton X-100 containing 0.27% New England Nuclear Omnifluor was added, and the radioactivity was determined in a liquid scintillation counter.
Three replicates (samples of enzyme) were conducted per experiment (per animal). The results were reported as the average of the values obtained from the adipose tissue from two experiments (i.e., two different animals).
The percent inhibition by the test compound compared to the controls (no test compound) was determined.

Compound | Percent Inhibition
CC(NCCC(c1ccccc1)c1ccsc1)C(O)c1ccccc1.Cl (stereo not drawn) [Compound 1, alpha-(1-(3-phenyl-3-(3-thienyl)propylamino)ethyl)-benzenemethanol, hydrochloride] | 94
Cl.OC(CNCC=C(c1ccsc1)c1ccsc1)c1cccc(C(F)(F)F)c1 (stereo not drawn) [Compound 2, alpha-((3,3-di-3-thienyl-2-propenylamino)methyl)-3-(trifluoromethyl)benzenemethanol, hydrochloride] | 101
CC(NCC=C(c1ccsc1)c1ccsc1)C(O)c1ccccc1.Cl (stereo not drawn) [Compound 3, alpha-(1-(3,3-di-3-thienyl-2-propenylamino)ethyl)-benzenemethanol, hydrochloride] | 97
Cl.OC(CNCCC(O)(c1ccccc1)c1ccsc1)c1ccc(Cl)cc1 (stereo not drawn) [Compound 4, alpha-(2-(2-(4-chlorophenyl)-2-hydroxyethylamino)-ethyl)-alpha-phenyl-3-thiophenemethanol, hydrochloride] | 94
CC(C)c1ccc(C(=CCNC(C)C(O)c2ccccc2)c2ccsc2)cc1.Cl (stereo not drawn) [Compound 5, alpha-(1-(3-(4-(1-methylethyl)-phenyl)-3-(3-thienyl)-2-propenylamino)ethyl)benzenemethanol, hydrochloride] | 96
